From ChEMBL document CHEMBL5126504, “A gulose moiety contributes to the belomycin (BLM) disaccharide selective targeting to lung cancer cells” (Eur J Med Chem, 2021)

Legend:
[1] = Drug uptake in human A549 cells overexpressing GLUT1 assessed as increase in fluorescence intensity at 25 uM measured after 1 hr at 37 degreeC by DAPI staining based confocal fluorescence microscopic analysis; assay type: ADME, cell-based; conditions: a549, 1 h
[2] = Drug uptake in human A549 cells overexpressing GLUT1 assessed as increase in fluorescence intensity at 25 uM measured after 1 hr by DAPI staining based confocal fluorescence microscopic analysis; assay type: ADME, cell-based; conditions: a549, 1 h
[3] = Selectivity index, ratio of IC50 for cytotoxicity against human BEAS-2B cells to IC50 for cytotoxicity against human A549 cells; assay type: toxicity, cell-based; conditions: BEAS-2B cells and A549 cells, read-out: Ratio IC50
[4] = Cytotoxicity against human BEAS-2B cells assessed as reduction in cell viability after 48 hrs by MTT assay; assay type: toxicity, cell-based
A549 = test: Cytotoxicity against human A549 cells assessed as reduction in cell viability after 48 hrs by MTT assay; assay type: functional, cell-based; conditions: A549, 48 h

Row | Drug uptake [1] | Drug uptake [2] | Structure (SMILES) | selectivity ratio [3] | IC50 at 48 h [4] | IC50 (A549)
1 | Active | Active | CC[N+]1=C(/C=C/C=C/C=C2/N(CCCCCC(=O)NCCOCCOC3O[C@@H](CO)[C@H](O)[C@@H](O)[C@@H]3O[C@H]3O[C@H](CO)[C@@H](O)[C@H](OC(N)=O)[C@@H]3O)c3ccc(S(=O)(=O)O)cc3C2(C)C)C(C)(C)c2cc(S(=O)(=O)[O-])ccc21 (stereo partly drawn) |  |  | 
2 |  |  | NC(=O)O[C@@H]1[C@H](O)[C@@H](O[C@H]2C(OCCCCCC(=O)Nc3ccn(C4OC(CO)C(O)C4(F)F)c(=O)n3)O[C@H](CO)[C@H](O)[C@H]2O)O[C@H](CO)[C@H]1O (stereo partly drawn) | 20 | 2600 nM | 130 nM
3 |  |  | CC(=O)OC[C@H]1OC(OCCCCCC(=O)Nc2ccn(C3OC(CO)C(O)C3(F)F)c(=O)n2)[C@@H](O)[C@@H](OC(N)=O)[C@@H]1O (stereo partly drawn) |  | 7770 nM | 920 nM
4 |  |  | CC(=O)OC[C@H]1OC(OCCCCCC(=O)Nc2ccn(C3OC(CO)C(O)C3(F)F)c(=O)n2)[C@H](O)[C@H](O)[C@H]1O (stereo partly drawn) | 20.9 | 5430 nM | 260 nM
5 |  | Active | CC[N+]1=C(/C=C/C=C/C=C2/N(CCCCCC(=O)NCCOCCOC3O[C@@H](CO)[C@@H](O)[C@H](O)[C@@H]3O[C@H]3O[C@H](CO)[C@@H](O)[C@H](OC(N)=O)[C@@H]3O)c3ccc(S(=O)(=O)O)cc3C2(C)C)C(C)(C)c2cc(S(=O)(=O)[O-])ccc21 (stereo partly drawn) |  |  | 
6 |  |  | CC(=O)OC[C@H]1OC(OCCCCCC(=O)Nc2ccn(C3OC(CO)C(O)C3(F)F)c(=O)n2)[C@@H](O)[C@@H](O)[C@@H]1O (stereo partly drawn) |  | 7780 nM | 460 nM
7 |  |  | Nc1ccn([C@@H]2O[C@H](CO)[C@@H](O)C2(F)F)c(=O)n1 [GEMCITABINE] | 0.88 | 37 nM | 44 nM
8 | Active | Active | CC[N+]1=C(/C=C/C=C/C=C2/N(CCCCCC(=O)NCCOCCOC3O[C@H](CO)[C@H](O)[C@@H](O)[C@H]3O)c3ccc(S(=O)(=O)O)cc3C2(C)C)C(C)(C)c2cc(S(=O)(=O)[O-])ccc21 (stereo partly drawn) |  |  | 
